Values of other authors as cited in US20030008923A1, “Antineoplastic combinations” (Wyeth, priority 2001, published 2003).

Experiments:
[1] = system: histologically diverse tumor cells
[2] = system: human tumor xenografts
[3] = system: human glioblastoma cell line; conditions: human glioblastoma cell line in vitro
[4] = target: mTOR (Homo sapiens, UniProt P42345+P62942); conditions: growth factor stimulated cells, Western blot

CO[C@H]1C[C@@H]2CC[C@@H](C)[C@@](O)(O2)C(=O)C(=O)N2CCCC[C@H]2C(=O)O[C@H]([C@H](C)C[C@@H]2CC[C@@H](OC(=O)C(C)(CO)CO)[C@H](OC)C2)CC(=O)[C@H](C)/C=C(\C)[C@@H](O)[C@@H](OC)C(=O)[C@H](C)C[C@H](C)/C=C/C=C/C=C/1C [CCI-779, Rapamycin 42-ester with 3-hydroxy-2-(hydroxymethyl)-2-methylpropionic acid]
growth of tumor cells in vitro ([1]; histologically diverse tumor cells): inhibit the growth
cell cycle effect ([1]; in vitro): arrested cells in the G1 phase
activity against human tumor xenografts of diverse histological types ([2]; nude mice): has activity
growth of several human pancreatic tumors ([2]; nude mice): inhibited
activity in orthotopic glioma model ([2]; orthotopic glioma model in nude mice): active
growth factor (platelet-derived)-induced stimulation [3]: markedly suppressed

CO[C@H]1C[C@@H]2CC[C@@H](C)[C@@](O)(O2)C(=O)C(=O)N2CCCC[C@H]2C(=O)O[C@H]([C@H](C)C[C@@H]2CC[C@@H](O)[C@H](OC)C2)CC(=O)[C@H](C)/C=C(\C)[C@@H](O)[C@@H](OC)C(=O)[C@H](C)C[C@H](C)/C=C/C=C/C=C/1C [rapamycin]
phosphorylation of serine 389 of p70s6 kinase [4]: completely blocks
